Values after ≈ are worked out from the molar mass of the structure shown. Where two headings read alike, the source gives them in different places.
Assays:
[1] = Cytotoxicity, resazurin staining assay; assay type: cell-based, human; settings: human, 24 h incubation
Experimental: The cytotoxicity of the compounds was assessed on the three different human cell lines, A549, HEp-2, and HL-60, using the redox-based resazurin staining assay. The cells were seeded in clear 96-well plates at a density of 1 × 10^4 cells per well in a volume of 200 μL per well. The adherent cells were let to attach for 24 h before changing the media and adding the compounds (final concentration of 0.25% DMSO). HL-60 were counted and added to the plates at a density of 1 × 10^4 cells per well in a volume of 200 μL directly with the compounds. Untreated cells were used as negative controls, and cells treated with 1% TritonX-100 (Sigma-Aldrich, St. Louis, MO) were used as positive controls for cytotoxicity. The cells were incubated with the compounds for 24 h.
For the resazurin assay, the media was first removed, and the adherent cells were washed once with PBS. Then, 200 μL of 20 μM resazurin was added per well and cells were incubated for two more hours before the measurement of fluorescence, as mentioned earlier. For HL-60, 10 μL of 400 μM resazurin was added directly to the wells and the cells were incubated for an additional 4 h before the measurement of fluorescence.

S. aureus ATCC 12598 = assay: Antibacterial activity, pre-exposure; assay type: cell-based, Staphylococcus aureus; settings: for Average inhibition %, biofilms viability / Average inhibition %, planktonic cells viability / inhibition at 5 µM / inhibition at 10 µM / inhibition at 15 µM / inhibition at 25 µM: S. aureus ATCC 12598, pre-exposure, ± SD
Experimental: (§1) The antimicrobial activity was assessed in a similar way for the initial screening and the dose–response evaluation against different bacterial strains. With the exception of the post-exposure experiment, the compounds were added to the wells along with the bacteria to test the ability of compounds to prevent bacterial growth and biofilm formation (pre-exposure). The compounds were diluted in DMSO and plated directly in 96-well plates before adding the bacterial culture, and plates were incubated for 18 h under aerobic conditions at 37 °C with shaking (220 rpm). The antibacterial activity of the compounds was assessed on planktonic cells and biofilms separately using two different measurements for each: optical density (turbidity) and resazurin reduction (viability) on planktonic cells and resazurin followed by a crystal violet staining assay (total biomass) on biofilms, as described in the following sections.
(§2) The resazurin staining was performed according to the protocol previously optimized with a few modifications.[46] Briefly, the planktonic solution was first transferred into a new 96-well plate and the OD of the planktonic solution was measured using a Varioskan LUX Multimode microplate reader (Thermo Scientific, Vantaa, Finland). Then, 10 μL of a 400 μM resazurin (R7017, Sigma-Aldrich, St. Louis, MO) diluted in phosphate-buffered saline (PBS) (Thermo Fisher Scientific, MA) was added to the wells (for a final resazurin concentration of 20 μM). The plate was incubated in the dark with shaking (220 rpm) for about 3–10 min at room temperature with S. aureus and A. baumannii (until the bacteria controls turned pink) or for 20 min at 37 °C with P. aeruginosa. Fluorescence was measured at λex = 560 nm and λem = 590 nm using the top optics of the Varioskan LUX Multimode microplate reader. The planktonic plate was then discarded. The original challenge plate containing the biofilms was washed once with PBS, and 200 μL of a 20 μM resazurin solution was added to the wells. The plate was incubated in the dark at 37 °C with shaking (220 rpm) for 30 min with S. aureus, 60 min with A. baumannii, and 90 min with P. aeruginosa. Fluorescence was measured as described for the planktonic solution. The biofilms were next treated with crystal violet staining.
(§3) After removing the resazurin solution from the plate, biofilms were fixed with ethanol 100% for 15 min at room temperature. Ethanol was then removed, and the biofilms were left to air-dry completely at RT. Crystal violet, diluted to 1:100 in deionized water from the 2.3% commercial solution (HT90132, Sigma-Aldrich, St. Louis, MO), was added to the wells and, after a 5 min incubation with the dye, the biofilms were washed twice with deionized water and left to air-dry for about 10 min. The dye was solubilized in ethanol 100% for 1 h, and absorbance was measured at 595 nm using a Multiskan Sky microplate spectrophotometer (Thermo Scientific, Vantaa, Finland).

S. aureus P2 = assay: Antibacterial activity, pre-exposure; assay type: cell-based, Staphylococcus aureus; settings: for Average inhibition %, biofilms viability / Average inhibition %, planktonic cells viability / inhibition at 5 µM / inhibition at 10 µM / inhibition at 15 µM / inhibition at 25 µM: S. aureus P2, pre-exposure, ± SD
Experimental: as §1, §2, §3

Q: For `CCCCCCCCCCc1ccc(C(O)CC(N)(CO)CO)cc1` (stereo not shown) [Compound 55, 3-Amino-3-(hydroxymethyl)-1-(4-decylphenyl)butane-1,4-diol], which CC50 at 24 h ([1]; A549 cells) is on record?
A: 35.3 ± 5.1 µM

Q: What about the CC50 at 24 h ([1]; HEp-2 cells) of the same molecule?
A: 33.9 ± 1.2 µM

Q: What about the CC50 at 24 h ([1]; HL-60 cells) of the same molecule?
A: 7.4 ± 6.9 µM

Q: And the “Average inhibition %, biofilms viability” value (S. aureus ATCC 12598; 5 µM)?
A: 15.2 ± 6.4%

Q: And the “Average inhibition %, planktonic cells viability” value (S. aureus ATCC 12598; 5 µM)?
A: 7.6 ± 8.8%

Q: And the “Average inhibition %, biofilms viability” value (S. aureus ATCC 12598; 10 µM)?
A: 99.2 ± 0.1%

Q: And the “Average inhibition %, planktonic cells viability” value (S. aureus ATCC 12598; 10 µM)?
A: 99.8 ± 0%

Q: And the “Average inhibition %, biofilms viability” value (S. aureus ATCC 12598; 15 µM)?
A: 99.5 ± 0.3%

Q: What about the “Average inhibition %, planktonic cells viability” value (S. aureus ATCC 12598; 15 µM) of the same molecule?
A: 99.7 ± 0%

Q: And the “Average inhibition %, biofilms viability” value (S. aureus ATCC 12598; 25 µM)?
A: 99.6 ± 0%

Q: And the “Average inhibition %, planktonic cells viability” value (S. aureus ATCC 12598; 25 µM)?
A: 99.6 ± 0.1%

Q: What about the inhibition at 5 µM (S. aureus ATCC 12598; Staphylococcus aureus, ATCC12598, 5 µM, read-out: Average inhibition %, biofilms biomass) of the same molecule?
A: 27.6 ± 19.6%

Q: And the inhibition at 5 µM (S. aureus ATCC 12598; Staphylococcus aureus, ATCC12598, 5 µM, read-out: Average inhibition %, planktonic cells turbidity)?
A: 21.2 ± 6.5%

Q: And the inhibition at 10 µM (S. aureus ATCC 12598; Staphylococcus aureus, ATCC12598, 10 µM, read-out: Average inhibition %, biofilms biomass)?
A: 94.3 ± 1.2%

Q: What about the inhibition at 10 µM (S. aureus ATCC 12598; Staphylococcus aureus, ATCC12598, 10 µM, read-out: Average inhibition %, planktonic cells turbidity) of the same molecule?
A: 99.6 ± 0.1%

Q: What about the inhibition at 15 µM (S. aureus ATCC 12598; Staphylococcus aureus, ATCC12598, 15 µM, read-out: Average inhibition %, biofilms biomass) of the same molecule?
A: 93 ± 1.1%

Q: And the inhibition at 15 µM (S. aureus ATCC 12598; Staphylococcus aureus, ATCC12598, 15 µM, read-out: Average inhibition %, planktonic cells turbidity)?
A: 99.4 ± 0.2%

Q: What about the inhibition at 25 µM (S. aureus ATCC 12598; Staphylococcus aureus, ATCC12598, 25 µM, read-out: Average inhibition %, biofilms biomass) of the same molecule?
A: 90.2 ± 2.1%

Q: What about the inhibition at 25 µM (S. aureus ATCC 12598; Staphylococcus aureus, ATCC12598, 25 µM, read-out: Average inhibition %, planktonic cells turbidity) of the same molecule?
A: 98.9 ± 0.3%

Q: And the MIC (S. aureus ATCC 12598; Staphylococcus aureus, ATCC12598, pre-exposure, 18 h, read-out: MIC S. aureus ATCC 12598)?
A: 10 µM (≈ 3.52 µg/mL)

Q: And the “Average inhibition %, biofilms viability” value (S. aureus P2; 5 µM)?
A: 32.1 ± 8.5%

Q: And the “Average inhibition %, planktonic cells viability” value (S. aureus P2; 5 µM)?
A: 3.4 ± 5.8%

Q: And the “Average inhibition %, biofilms viability” value (S. aureus P2; 10 µM)?
A: 99.4 ± 0.2%

Q: What about the “Average inhibition %, planktonic cells viability” value (S. aureus P2; 10 µM) of the same molecule?
A: 99.8 ± 0%

Q: And the “Average inhibition %, biofilms viability” value (S. aureus P2; 15 µM)?
A: 99.6 ± 0%

Q: What about the “Average inhibition %, planktonic cells viability” value (S. aureus P2; 15 µM) of the same molecule?
A: 99.6 ± 0.1%

Q: What about the “Average inhibition %, biofilms viability” value (S. aureus P2; 25 µM) of the same molecule?
A: 99.6 ± 0%

Q: And the “Average inhibition %, planktonic cells viability” value (S. aureus P2; 25 µM)?
A: 99.5 ± 0.1%

Q: And the MIC (S. aureus P2; Staphylococcus aureus, P2, pre-exposure, 18 h)?
A: 10 µM (≈ 3.52 µg/mL)

Q: And the inhibition at 5 µM (S. aureus P2; Staphylococcus aureus, 5 µM, read-out: Average inhibition %, biofilms biomass)?
A: 23.6 ± 10.9%

Q: What about the inhibition at 5 µM (S. aureus P2; Staphylococcus aureus, 5 µM, read-out: Average inhibition %, planktonic cells turbidity) of the same molecule?
A: 14 ± 3%

Q: And the inhibition at 10 µM (S. aureus P2; Staphylococcus aureus, 10 µM, read-out: Average inhibition %, biofilms biomass)?
A: 96.5 ± 0.7%

Q: And the inhibition at 10 µM (S. aureus P2; Staphylococcus aureus, 10 µM, read-out: Average inhibition %, planktonic cells turbidity)?
A: 99.6 ± 0.1%

Q: What about the inhibition at 15 µM (S. aureus P2; Staphylococcus aureus, 15 µM, read-out: Average inhibition %, biofilms biomass) of the same molecule?
A: 95.1 ± 0.2%

Q: What about the inhibition at 15 µM (S. aureus P2; Staphylococcus aureus, 15 µM, read-out: Average inhibition %, planktonic cells turbidity) of the same molecule?
A: 99.3 ± 0.1%

Q: And the inhibition at 25 µM (S. aureus P2; Staphylococcus aureus, 25 µM, read-out: Average inhibition %, biofilms biomass)?
A: 91.6 ± 1.2%

Q: What about the inhibition at 25 µM (S. aureus P2; Staphylococcus aureus, 25 µM, read-out: Average inhibition %, planktonic cells turbidity) of the same molecule?
A: 98.8 ± 0.2%

Q: What does the source list for `CCCCCCCCCCc1ccc(CCC(N)(CO)CO)nc1` [Compound 62, 2-Amino-2-[2-(5-decylpyridin-2-yl)ethyl]propane-1,3-diol]?
A: CC50 at 24 h ([1]; A549 cells): 27.6 ± 6.4 µM; CC50 at 24 h ([1]; HEp-2 cells): 30.9 ± 6.2 µM; CC50 at 24 h ([1]; HL-60 cells): 3.6 ± 0.4 µM
